target: T1, IGFR kinase (Homo sapiens, UniProt P08069); experiment: Enzyme assay (c), IGFR kinase, Caliper LabChip; type: biochemical; settings: 30 nM IGFR kinase, 6 uM ATP, 3 uM peptide mix; read-out: IGFR IC50
T1 construct: purchased Millipore
T1 sequence (P08069 31-1367): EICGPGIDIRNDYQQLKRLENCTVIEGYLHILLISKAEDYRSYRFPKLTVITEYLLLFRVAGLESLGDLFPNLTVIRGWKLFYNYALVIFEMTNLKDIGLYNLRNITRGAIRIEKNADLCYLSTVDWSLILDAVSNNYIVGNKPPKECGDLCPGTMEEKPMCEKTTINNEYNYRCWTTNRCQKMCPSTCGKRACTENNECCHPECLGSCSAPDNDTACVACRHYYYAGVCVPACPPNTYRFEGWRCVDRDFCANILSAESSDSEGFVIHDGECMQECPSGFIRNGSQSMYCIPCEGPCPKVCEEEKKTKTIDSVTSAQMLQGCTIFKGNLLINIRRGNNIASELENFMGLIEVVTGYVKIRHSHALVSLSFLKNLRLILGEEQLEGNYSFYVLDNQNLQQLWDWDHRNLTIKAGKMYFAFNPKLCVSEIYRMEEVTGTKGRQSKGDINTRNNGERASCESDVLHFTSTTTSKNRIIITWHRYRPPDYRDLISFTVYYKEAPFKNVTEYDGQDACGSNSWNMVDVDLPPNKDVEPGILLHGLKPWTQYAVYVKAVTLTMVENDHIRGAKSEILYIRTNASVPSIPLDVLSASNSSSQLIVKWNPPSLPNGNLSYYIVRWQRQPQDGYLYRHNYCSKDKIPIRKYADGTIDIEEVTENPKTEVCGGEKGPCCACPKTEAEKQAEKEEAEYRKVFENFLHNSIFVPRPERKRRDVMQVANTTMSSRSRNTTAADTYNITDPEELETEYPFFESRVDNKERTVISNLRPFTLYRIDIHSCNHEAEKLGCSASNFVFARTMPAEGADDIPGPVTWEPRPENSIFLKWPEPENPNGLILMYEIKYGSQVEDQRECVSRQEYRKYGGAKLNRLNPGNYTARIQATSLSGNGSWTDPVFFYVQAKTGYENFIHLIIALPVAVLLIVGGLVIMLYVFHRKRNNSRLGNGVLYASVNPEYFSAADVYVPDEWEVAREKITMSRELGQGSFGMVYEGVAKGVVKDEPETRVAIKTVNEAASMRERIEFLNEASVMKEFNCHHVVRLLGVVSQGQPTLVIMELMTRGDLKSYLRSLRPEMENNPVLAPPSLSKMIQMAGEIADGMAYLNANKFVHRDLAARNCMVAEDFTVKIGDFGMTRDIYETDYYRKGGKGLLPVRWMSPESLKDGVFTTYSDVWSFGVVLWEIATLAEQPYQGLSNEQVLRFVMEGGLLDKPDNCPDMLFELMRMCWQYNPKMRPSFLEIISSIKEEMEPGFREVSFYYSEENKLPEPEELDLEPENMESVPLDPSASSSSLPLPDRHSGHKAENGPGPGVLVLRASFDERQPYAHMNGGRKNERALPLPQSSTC

Question: Which IC50 does the source give for `COc1cc(N2CC[C@@H](N)C2)ccc1Nc1ncc(Cl)c(-c2cnc3ccccn23)n1` [Example 71, N-[4-[(3R)-3-aminopyrrolidin-1-yl]-2-methoxy-phenyl]-5-chloro-4-imidazo[1,2-a]pyridin-3-yl-pyrimidin-2-amine] here?
Answer: Its IC50 is 10 nM.

Question: Which IC50 does the source give for `COc1cc(N2CCN(C(C)=O)CC2)ccc1Nc1ncc(F)c(-c2cnc3ccccn23)n1` [Example 72, 1-[4-[4-[(5-fluoro-4-imidazo[1,2-a]pyridin-3-yl-pyrimidin-2-yl)amino]-3-methoxy-phenyl]piperazin-1-yl]ethanone] here?
Answer: Its IC50 is 96 nM.

Question: `COc1cc(N2CCNCC2)ccc1Nc1ncc(F)c(-c2cnc3ccccn23)n1` [Example 73, 5-fluoro-4-imidazo[1,2-a]pyridin-3-yl-N-(2-methoxy-4-piperazin-1-yl-phenyl)pyrimidin-2-amine] was tested. Which IC50 did it give?
Answer: Its IC50 is 71 nM.

Question: How did the IC50 turn out when `COc1cc(N2CCN(S(=O)(=O)N(C)C)CC2)ccc1Nc1ncc(F)c(-c2cnc3ccccn23)n1` [Example 74, 4-[4-[(5-fluoro-4-imidazo[1,2-a]pyridin-3-yl-pyrimidin-2-yl)amino]-3-methoxy-phenyl]-N,N-dimethyl-piperazine-1-sulfonamide] was run?
Answer: The IC50 was 42 nM.

Question: `COc1ccc(N2CCNCC2)cc1Nc1ncc(F)c(-c2cnc3ccccn23)n1` [Example 75, 5-fluoro-4-imidazo[1,2-a]pyridin-3-yl-N-(2-methoxy-5-piperazin-1-yl-phenyl)pyrimidin-2-amine] was tested. Which IC50 did it give?
Answer: The IC50 was 172 nM.

Question: For `COc1cc(N2CC[C@@H](N(C)C)C2)ccc1Nc1ncc(F)c(-c2cnc3ccccn23)n1` [Example 76, N-[4-[(3R)-3-dimethylaminopyrrolidin-1-yl]-2-methoxy-phenyl]-5-fluoro-4-imidazo[1,2-a]pyridin-3-yl-pyrimidin-2-amine], which IC50 is on record?
Answer: The IC50 was 33 nM.

Question: How did the IC50 turn out when `COc1ccc(N2CCC(OC)CC2)cc1Nc1ncc(F)c(-c2cnc3ccccn23)n1` [Example 77, 5-fluoro-4-imidazo[1,2-a]pyridin-3-yl-N-[2-methoxy-5-(4-methoxy-1-piperidyl)phenyl]pyrimidin-2-amine] was run?
Answer: Its IC50 is 184 nM.

Question: For `COc1cc(C2CCN(C(C)=O)CC2)ccc1Nc1ncc(F)c(-c2cnc3ccccn23)n1` [Example 78, 1-[4-[4-[(5-fluoro-4-imidazo[1,2-a]pyridin-3-yl-pyrimidin-2-yl)amino]-3-methoxy-phenyl]-1-piperidyl]ethanone], which IC50 is on record?
Answer: The IC50 was 54 nM.

Question: Which IC50 does the source give for `COc1cc(N2CCOCC2)ccc1Nc1ncc(F)c(-c2cnc3ccccn23)n1` [Example 79, 5-fluoro-4-imidazo[1,2-a]pyridin-3-yl-N-(2-methoxy-4-morpholino-phenyl)pyrimidin-2-amine] here?
Answer: The IC50 was 56 nM.

Question: With `COc1cc(N2CCCC2)ccc1Nc1ncc(F)c(-c2cnc3ccccn23)n1` [Example 80, 5-fluoro-4-imidazo[1,2-a]pyridin-3-yl-N-(2-methoxy-4-pyrrolidin-1-yl-phenyl)pyrimidin-2-amine] as the compound, how does the IC50 read?
Answer: Its IC50 is 133 nM.

Question: For `COCCN1CCN(c2ccc(Nc3ncc(F)c(-c4cnc5ccccn45)n3)c(OC)c2)CC1` [Example 82, 5-fluoro-4-imidazo[1,2-a]pyridin-3-yl-N-[2-methoxy-4-[4-(2-methoxyethyl)piperazin-1-yl]phenyl]pyrimidin-2-amine], which IC50 is on record?
Answer: Its IC50 is 43 nM.

Question: For `COc1cc(N2CC[C@H](O)C2)ccc1Nc1ncc(F)c(-c2cnc3ccccn23)n1` [Example 83, (3S)-1-[4-[(5-fluoro-4-imidazo[1,2-a]pyridin-3-yl-pyrimidin-2-yl)amino]-3-methoxy-phenyl]pyrrolidin-3-ol], which IC50 is on record?
Answer: Its IC50 is 167 nM.

Question: `COc1cc(N2CCCOCC2)ccc1Nc1ncc(F)c(-c2cnc3ccccn23)n1` [Example 84, 5-fluoro-4-imidazo[1,2-a]pyridin-3-yl-N-[2-methoxy-4-(1,4-oxazepan-4-yl)phenyl]pyrimidin-2-amine] was tested. Which IC50 did it give?
Answer: Its IC50 is 179 nM.

Question: `COc1cc(N2CC[C@@H](O)C2)ccc1Nc1ncc(F)c(-c2cnc3ccccn23)n1` [Example 85, (3R)-1-[4-[(5-fluoro-4-imidazo[1,2-a]pyridin-3-yl-pyrimidin-2-yl)amino]-3-methoxy-phenyl]pyrrolidin-3-ol] was tested. Which IC50 did it give?
Answer: Its IC50 is 34 nM.

Question: For `COc1cc(C2CCNCC2)ccc1Nc1ncc(F)c(-c2cnc3ccccn23)n1` [Example 86, 5-fluoro-4-imidazo[1,2-a]pyridin-3-yl-N-[2-methoxy-4-(4-piperidyl)phenyl]pyrimidin-2-amine], which IC50 is on record?
Answer: The IC50 was 12 nM.

Question: Which IC50 does the source give for `COc1cc(OC[C@H]2CCCN2)ccc1Nc1ncc(F)c(-c2cnc3ccccn23)n1` [Example 87, 5-fluoro-4-imidazo[1,2-a]pyridin-3-yl-N-[2-methoxy-4-[[(2R)-pyrrolidin-2-yl]methoxy]phenyl]pyrimidin-2-amine] here?
Answer: Its IC50 is 65 nM.

Question: `COc1cc(N2CCNC(=O)C2)ccc1Nc1ncc(F)c(-c2cnc3ccccn23)n1` [Example 88, 4-[4-[(5-fluoro-4-imidazo[1,2-a]pyridin-3-yl-pyrimidin-2-yl)amino]-3-methoxy-phenyl]piperazin-2-one] was tested. Which IC50 did it give?
Answer: Its IC50 is 23 nM.

Question: For `COc1cc(N2CCN(C[C@H](C)O)CC2)ccc1Nc1ncc(F)c(-c2cnc3ccccn23)n1` [Example 89, (2S)-1-[4-[4-[(5-fluoro-4-imidazo[1,2-a]pyridin-3-yl-pyrimidin-2-yl)amino]-3-methoxy-phenyl]piperazin-1-yl]propan-2-ol], which IC50 is on record?
Answer: Its IC50 is 34 nM.

Question: With `COc1cc(N2CCN(C[C@@H](C)O)CC2)ccc1Nc1ncc(F)c(-c2cnc3ccccn23)n1` [Example 90, (2R)-1-[4-[4-[(5-fluoro-4-imidazo[1,2-a]pyridin-3-yl-pyrimidin-2-yl)amino]-3-methoxy-phenyl]piperazin-1-yl]propan-2-ol] as the compound, how does the IC50 read?
Answer: The IC50 was 37 nM.

Question: How did the IC50 turn out when `COc1cc(N2CCN(CC(C)(C)O)CC2)ccc1Nc1ncc(F)c(-c2cnc3ccccn23)n1` [Example 91, 1-[4-[4-[(5-fluoro-4-imidazo[1,2-a]pyridin-3-yl-pyrimidin-2-yl)amino]-3-methoxy-phenyl]piperazin-1-yl]-2-methyl-propan-2-ol] was run?
Answer: The IC50 was 35 nM.

Question: `COc1cc(N2CCN(C(C)=O)CC2)ccc1Nc1ncc(OC)c(-c2cnc3ccccn23)n1` [Example 92, 1-[4-[4-[(4-imidazo[1,2-a]pyridin-3-yl-5-methoxy-pyrimidin-2-yl)amino]-3-methoxy-phenyl]piperazin-1-yl]ethanone] was tested. Which IC50 did it give?
Answer: The IC50 was 90 nM.

Question: `COc1cc(N2CCNCC2)ccc1Nc1ncc(OC)c(-c2cnc3ccccn23)n1` [Example 93, 4-imidazo[1,2-a]pyridin-3-yl-5-methoxy-N-(2-methoxy-4-piperazin-1-yl-phenyl)pyrimidin-2-amine] was tested. Which IC50 did it give?
Answer: Its IC50 is 27 nM.

Question: With `COc1cc(C2CCN(C(C)=O)CC2)ccc1Nc1ncc(OC)c(-c2cnc3ccccn23)n1` [Example 94, 1-[4-[4-[(4-imidazo[1,2-a]pyridin-3-yl-5-methoxy-pyrimidin-2-yl)amino]-3-methoxy-phenyl]-1-piperidyl]ethanone] as the compound, how does the IC50 read?
Answer: The IC50 was 136 nM.

Question: With `COc1cc(N2CCN(CCO)CC2)ccc1Nc1ncc(OC)c(-c2cnc3ccccn23)n1` [Example 95, 2-[4-[4-[(4-imidazo[1,2-a]pyridin-3-yl-5-methoxy-pyrimidin-2-yl)amino]-3-methoxy-phenyl]piperazin-1-yl]ethanol] as the compound, how does the IC50 read?
Answer: The IC50 was 60 nM.

Question: Which IC50 does the source give for `COc1cc(OC[C@H]2CCCN2)ccc1Nc1ncc(OC)c(-c2cnc3ccccn23)n1` [Example 96, 4-imidazo[1,2-a]pyridin-3-yl-5-methoxy-N-[2-methoxy-4-[[(2R)-pyrrolidin-2-yl]methoxy]phenyl]pyrimidin-2-amine] here?
Answer: The IC50 was 127 nM.

From patent US20100105655A1, “NOVEL COMPOUNDS 515” (ASTRAZENECA AB, priority 2008, published 2010)
